This passage reports IC50 and melting point results from article PMC5943947 (Molecules : A Journal of Synthetic Chemistry and Natural …, 2017).

In general, IC50 refers to the midpoint of a concentration-inhibition curve. In general, melting point refers to the temperature of the solid-liquid transition.

A value given as a limit tells only on which side of the number the result lay.

One data set concerns the target VEGFR-2 (Homo sapiens, UniProt P35968). As to the kind of experiment: VEGFR-2 inhibitory assay (caliper mobility shift assay).
A further data set concerns HCT116 cell line. As to the kind of experiment: In vitro antiproliferative activity, MTT assay, HCT116. It is filed as cell-based. The conditions noted are these: Homo sapiens, HCT-116, 48 h. The protocol: (§1) HCT116, MCF-7 and B16 cell lines were plated on 96-well plates at a density of 5000 per well and incubated overnight. […] After 48 h, 0.5% MTT (Amresco, Solon, OH, USA) solution was added to each well, and further incubation for 4 h, then cells were centrifuged at 2500 rpm for 15 min and removed from the culture medium. And add 150 μL DMSO to dissolve the formazan. After mixing for 5 min, optical density was detected at 570 nm on a microplate reader (Thermo, Waltham, MA, USA).

The next data set relates to MCF-7 cell line. Put plainly: In vitro antiproliferative activity, MTT assay, MCF-7. The data set is classed as cell-based. The note with it: Homo sapiens, MCF7, 48 h. How it is done:
as §1

For another data set, the target named is EGFR (Homo sapiens, UniProt P00533). As to the kind of experiment: EGFR inhibitory assay (caliper mobility shift assay).
The subject of another data set is B16 cell line. Put plainly: In vitro antiproliferative activity, MTT assay, B16. It is filed as cell-based. The conditions noted are these: Mus musculus, 48 h. How it is done:
as §1

VEGFR-2, sequence (P35968 20-1356): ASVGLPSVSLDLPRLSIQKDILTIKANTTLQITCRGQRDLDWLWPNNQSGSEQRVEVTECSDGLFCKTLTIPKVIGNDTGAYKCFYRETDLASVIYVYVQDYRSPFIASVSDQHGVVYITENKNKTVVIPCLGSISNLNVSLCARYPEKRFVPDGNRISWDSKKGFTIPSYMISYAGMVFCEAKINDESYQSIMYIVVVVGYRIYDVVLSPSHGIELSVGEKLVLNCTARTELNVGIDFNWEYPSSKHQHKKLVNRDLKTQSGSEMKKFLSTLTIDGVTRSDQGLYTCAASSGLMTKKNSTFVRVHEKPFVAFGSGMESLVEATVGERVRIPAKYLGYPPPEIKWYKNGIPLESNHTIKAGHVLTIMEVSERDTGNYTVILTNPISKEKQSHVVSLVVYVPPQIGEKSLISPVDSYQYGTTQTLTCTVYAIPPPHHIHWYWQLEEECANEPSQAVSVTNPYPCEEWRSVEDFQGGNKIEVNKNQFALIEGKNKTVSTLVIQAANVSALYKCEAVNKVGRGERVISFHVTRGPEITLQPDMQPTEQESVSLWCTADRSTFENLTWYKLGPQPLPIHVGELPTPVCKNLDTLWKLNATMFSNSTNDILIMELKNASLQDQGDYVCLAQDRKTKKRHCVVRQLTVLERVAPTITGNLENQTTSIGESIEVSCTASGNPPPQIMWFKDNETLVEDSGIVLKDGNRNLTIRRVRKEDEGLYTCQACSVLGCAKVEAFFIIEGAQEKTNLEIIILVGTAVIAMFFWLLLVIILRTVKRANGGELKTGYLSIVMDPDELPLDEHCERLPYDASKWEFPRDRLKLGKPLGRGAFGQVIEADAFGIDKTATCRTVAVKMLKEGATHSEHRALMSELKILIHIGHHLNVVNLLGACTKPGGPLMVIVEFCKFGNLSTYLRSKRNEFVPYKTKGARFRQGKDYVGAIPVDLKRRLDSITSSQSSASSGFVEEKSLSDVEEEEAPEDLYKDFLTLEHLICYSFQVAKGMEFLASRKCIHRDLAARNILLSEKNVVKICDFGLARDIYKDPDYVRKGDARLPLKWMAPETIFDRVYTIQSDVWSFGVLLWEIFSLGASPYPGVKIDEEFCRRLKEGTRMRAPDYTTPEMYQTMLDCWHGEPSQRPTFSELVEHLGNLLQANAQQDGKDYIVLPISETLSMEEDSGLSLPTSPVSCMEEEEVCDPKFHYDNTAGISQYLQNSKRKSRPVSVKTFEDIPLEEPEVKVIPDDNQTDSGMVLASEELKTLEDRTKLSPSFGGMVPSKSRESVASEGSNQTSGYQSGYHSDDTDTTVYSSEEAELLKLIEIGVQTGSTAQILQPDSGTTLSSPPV
EGFR, sequence (P00533 25-1210): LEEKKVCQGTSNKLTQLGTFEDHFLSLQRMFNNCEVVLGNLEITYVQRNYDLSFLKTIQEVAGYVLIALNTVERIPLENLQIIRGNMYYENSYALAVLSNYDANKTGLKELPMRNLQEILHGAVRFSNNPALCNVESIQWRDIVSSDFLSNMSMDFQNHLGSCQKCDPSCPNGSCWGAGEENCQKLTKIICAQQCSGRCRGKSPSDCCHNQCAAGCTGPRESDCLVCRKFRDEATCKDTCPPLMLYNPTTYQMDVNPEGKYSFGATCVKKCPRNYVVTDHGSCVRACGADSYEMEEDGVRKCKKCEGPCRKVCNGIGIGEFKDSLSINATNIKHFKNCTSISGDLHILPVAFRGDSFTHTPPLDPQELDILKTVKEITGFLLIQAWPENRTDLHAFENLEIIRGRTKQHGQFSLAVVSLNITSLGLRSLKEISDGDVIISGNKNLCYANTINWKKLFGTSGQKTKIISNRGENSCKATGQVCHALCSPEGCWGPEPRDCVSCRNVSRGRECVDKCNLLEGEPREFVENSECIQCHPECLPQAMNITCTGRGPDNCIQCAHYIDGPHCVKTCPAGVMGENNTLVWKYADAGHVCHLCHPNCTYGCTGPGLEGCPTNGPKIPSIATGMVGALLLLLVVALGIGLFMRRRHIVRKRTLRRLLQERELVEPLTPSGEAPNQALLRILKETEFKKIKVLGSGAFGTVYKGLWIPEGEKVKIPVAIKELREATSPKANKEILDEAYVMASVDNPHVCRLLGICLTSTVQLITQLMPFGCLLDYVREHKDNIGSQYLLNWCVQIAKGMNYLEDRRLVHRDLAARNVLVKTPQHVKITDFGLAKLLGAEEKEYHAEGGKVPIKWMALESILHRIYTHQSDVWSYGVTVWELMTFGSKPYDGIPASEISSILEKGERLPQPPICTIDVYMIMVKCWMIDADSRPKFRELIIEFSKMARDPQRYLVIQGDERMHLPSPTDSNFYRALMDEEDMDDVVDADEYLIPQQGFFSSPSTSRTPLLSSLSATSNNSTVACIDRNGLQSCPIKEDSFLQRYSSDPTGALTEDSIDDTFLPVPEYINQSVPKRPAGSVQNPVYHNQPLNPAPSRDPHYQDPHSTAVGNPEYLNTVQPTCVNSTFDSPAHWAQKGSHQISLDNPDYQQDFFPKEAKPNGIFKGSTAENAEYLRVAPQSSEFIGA
Protocol for VEGFR-2: Each of these compounds was dissolved in DMSO at 10 mM, diluted to 50× of the final desired highest inhibitor concentration in reaction by 100% DMSO, and 100 μL of each dilution was added to one well on 96-well storage plate, and diluted by transferring 10 μL to 90 μL of 100% DMSO in the next well. Besides, 100 μL of 100% DMSO was added to two empty wells for no compound control and no enzyme control in the same 96-well plate respectively. The plate was marked as source plate. 10 μL of each compound was transferred from the source plate to a new 96-well plate, which was marked as the intermediate plate. Next, 90 μL of 1× kinase base buffer was added to each well of the intermediate plate, and mixed by shaking vigorously for 10 min. A total of 5 μL of each well from the 96-well intermediate plate was transferred to a 384-well plate in duplicate.
Kinase reaction: kinase in 1× kinase base buffer, FAM-labeled peptide and ATP in the 1× kinase base buffer were added, then 10 μL of 2.5× enzyme solution was added to each well of the 384-well assay plate. After incubating at room temperature for 10 min, 10 μL of 2.5× peptide solution was added to each well of the 384-well assay plate. […] Finally, the kinase reactions were quenched with 25 μL of EDTA and the plates were washed. The dates were collected and converted with the caliper program.

As to `COc1cc2ncnc(Oc3cccc(NC(=S)Nc4ccc(Br)c(C(F)(F)F)c4)c3)c2cc1OC` [Compound 10c, 1-(4-Bromo-3-trifluoromethylphenyl)-3-[3-(6,7-dimethoxyquinazolin-4-yloxy)phenyl]thiourea], the IC50 at VEGFR-2 stood at 0.18 µM; in the data set on HCT116 cell line, 10 µM; in the data set on MCF-7 cell line it was 22.4 µM; at EGFR, 0.05 µM; in the data set on B16 cell line, 9.68 µM.

`COc1cc2ncnc(Oc3cccc(NC(=S)Nc4cccc(C(F)(F)F)c4)c3)c2cc1OC` [Compound 10e, 1-(3-Trifluoromethylphenyl)-3-[3-(6,7-dimethoxyquinazolin-4-yloxy)phenyl]thiourea] gave a melting point of 147.5 to 149.6 °C. For the same compound, the IC50 at VEGFR-2 came to 0.35 µM. In the data set with HCT116 cell line, this compound showed an IC50 of 12.2 µM. This compound also had an IC50 with MCF-7 cell line of 13.3 µM. At EGFR, the 50% inhibitory concentration (IC50) is 0.14 µM. The same compound gave a half-maximal inhibitory concentration (IC50) in the data set on B16 cell line of 14.8 µM.

For the compound `COc1cc2ncnc(Sc3cccc(NC(=S)Nc4ccc(F)cc4)c3)c2cc1OC` [Compound 10u, 1-(4-Fluorophenyl)-3-[3-(6,7-dimethoxyquinazolin-4-ylsulfanyl)phenyl]thiourea], the melting point fell in the range of 152 to 153.2 °C. Besides, the IC50 at VEGFR-2 stood at 6.62 µM. Also, 27.3 µM corresponded to half-maximal inhibition with HCT116 cell line (IC50). In the data set on MCF-7 cell line, this compound had an IC50 of 21.3 µM. Also, the IC50 at EGFR amounted to 5.35 µM. In the data set with B16 cell line, this compound had an IC50 of 61.2 µM.

Compound `COc1cc2ncnc(Oc3cccc(NC(=S)Nc4ccc(Cl)cc4)c3)c2cc1OC` [Compound 10i, 1-(4-Chlorophenyl)-3-[3-(6,7-dimethoxyquinazolin-4-yloxy)phenyl]thiourea] displayed a melting point of 198.3 to 201 °C. For the same compound, the IC50 on VEGFR-2 is more than 10 µM. The half-maximal inhibitory concentration (IC50) with HCT116 cell line is more than 100 µM. In the data set with MCF-7 cell line, the IC50 was determined as 22.1 µM. The IC50 at EGFR came to 4.17 µM. Besides, the half-maximal inhibitory concentration (IC50) with B16 cell line stood at 27.4 µM.

Take `COc1cc2ncnc(Oc3cccc(NC(=S)Nc4ccc(F)c(C(F)(F)F)c4)c3)c2cc1OC` [Compound 10a, 1-[3-(6,7-Dimethoxyquinazolin-4-yloxy)phenyl]-3-(4-fluoro-3-trifluoromethylphenyl)thiourea]: the melting point is 130.5 to 133 °C. Further, at VEGFR-2, the concentration for half-maximal inhibition (IC50) turned out to be 0.19 µM. Besides, inhibition with HCT116 cell line was half-maximal at 37.4 µM (IC50). The compound also had an IC50 in the data set with MCF-7 cell line of 38.1 µM. In addition, on EGFR, the IC50 is 0.04 µM. Besides, in the data set with B16 cell line, the IC50 turned out to be 16.9 µM.

For `COc1cc2ncnc(Oc3cccc(NC(=S)Nc4ccc(Cl)cc4Cl)c3)c2cc1OC` [Compound 10g, 1-(2,4-Dichlorophenyl)-3-[3-(6,7-dimethoxyquinazolin-4-yloxy)phenyl]thiourea], the melting point fell in the range of 187.4 to 188.2 °C. The half-inhibitory concentration (IC50) at VEGFR-2 was more than 10 µM. In the data set with HCT116 cell line, this compound showed a concentration for half-maximal inhibition (IC50) of 19.8 µM. The same compound showed a 50% inhibitory concentration (IC50) with MCF-7 cell line of 17.1 µM. The IC50 on EGFR was 7.71 µM. For the same compound, in the data set with B16 cell line, half-maximal inhibition (IC50) required 24.5 µM.

For `COc1cc2ncnc(Oc3cccc(NC(=S)Nc4ccc(F)cc4)c3)c2cc1OC` [Compound 10j, 1-(4-Fluorophenyl)-3-[3-(6,7-dimethoxyquinazolin-4-yloxy)phenyl]thiourea], the melting point lay within 168.5 to 170 °C. Also, the IC50 at VEGFR-2 was 7.11 µM. In the data set with HCT116 cell line, this compound yielded an IC50 of 89.7 µM. Further, half-maximal inhibition in the data set with MCF-7 cell line (IC50) was put at 23.6 µM. Moreover, at EGFR, the IC50 was determined as 5.9 µM. The compound also yielded an IC50 in the data set on B16 cell line of 34.1 µM.

Turning to `COc1cc2ncnc(Sc3cccc(NC(=S)Nc4ccc(F)c(C(F)(F)F)c4)c3)c2cc1OC` [Compound 10l, 1-[3-(6,7-Dimethoxyquinazolin-4-ylsulfanyl)phenyl]-3-(4-fluoro-3-trifluoromethylphenyl) thiourea], the melting point fell in the range of 128.4 to 130 °C. The midpoint of inhibition with HCT116 cell line, the IC50, lay at 8.79 µM. This compound returned an IC50 in the data set on MCF-7 cell line of 25 µM. In addition, it took 9.33 µM to reach half-maximal inhibition in the data set on B16 cell line (IC50).

The compound `COc1cc2ncnc(Oc3cccc(NC(=S)Nc4cc(C(F)(F)F)cc(C(F)(F)F)c4)c3)c2cc1OC` [Compound 10d, 1-(3,5-Ditrifluoromethylphenyl)-3-[3-(6,7-dimethoxyquinazolin-4-yloxy)phenyl]thiourea] had a melting point of 122.8 to 125.6 °C. Moreover, in the data set with HCT116 cell line, 15 µM corresponded to half-maximal inhibition (IC50). Besides, the half-maximal inhibitory concentration (IC50) in the data set with MCF-7 cell line was determined as 18.8 µM. This compound also registered a half-inhibitory concentration (IC50) in the data set on B16 cell line of 8.49 µM.
